The source of these data is paper PMC6458850, “CXXC5 mediates growth plate senescence and is a target for enhancement of longitudinal bone growth” (Life Science Alliance, 2019).

Data set [1] has as its system HEK293-TOP cells. The data set can be described thus: TOPFlash Wnt reporter assay. Type of data set: cell-based. To be noted: 18 h. The protocol: Figure 4. Identification of functional properties of KY19382 in activating the Wnt/β-catenin pathway. (A) Chemical structure of KY19382. (B) In vitro binding assay to analyze the effect of KY19382 on CXXC5–DVL interaction (mean ± SEM, n = 3). The IC50 value was determined from the dose–response curve. (C) In vitro kinase assay to analyze the effect of KY19382 on kinase activity of GSK3β (mean ± SEM, n = 3). The IC50 value was determined from the dose–response curve. (D) Analyses of TOPFlash activity in HEK293 reporter cells grown with the indicated concentrations of KY19382 for 18 h (mean ± SEM, n = 4; t test, **P < 0.005 and ***P < 0.0005 versus DMSO-treated control). (E) Immunoblot analyses with the indicated antibodies in ATDC5 cells treated with I3O or KY19382 for 24 h. (F) Immunoblot analyses of whole cell lysates immunoprecipitated with anti-Myc in ATDC5 cells treated with 0.1 μM KY19382 for 4 h after transfection with pCMV-FLAG-DVL1 and pcDNA3.1-CXXC5-Myc. (G) Immunocytochemical staining (left) and quantitative analyses (mean ± SEM, n = 3; t test, **P < 0.005) (right) for β-catenin in ATDC5 cells treated with 0.1 μM KY19382 for 48 h. Scale bar, 100 μm.
HEK293-TOP cells were seeded into each well of a 24-well plate. The cells were treated with individual compounds at indicated concentration and cultured for 18 h. […]
For orientation: In a reporter assay the amount or activity of a reporter protein is the signal.

The nature of data set [2]: Toxicity observations in mice treated with KY19382 for 10 wk. To be noted: 0.1 mg/kg i.p. daily for 10 wk. Type of data set: in vivo, mouse. The protocol: Figure S9. The effects of KY19382 on articular cartilage and liver tissues, or weight. Data are shown from mice used in Fig 5J. (A, B) H&E staining of articular cartilage (A) and liver (B) tissues. (C) During treatment, the weights of mice were measured every 5–7 d (mean ± SEM, n = 7∼15). Scale bars, 100 μm.
Cxxc5^−/− mice were established in a previous study ([Kim et al, 2015]). To manipulate growth plate senescence by estrogen, 3-wk-old Cxxc5^+/+ and Cxxc5^−/− male mice received weekly i.m. injections of either 70 μg/kg estradiol (E2) cypionate (Sigma-Aldrich) or vehicle (cottonseed oil) for 3 wk. To investigate the effects of KY19382 treatment on longitudinal bone growth, C57BL/6 male mice were purchased from KOATECH (Gyeonggido, Korea). KY19382 (0.1 mg/kg) was administered daily by i.p. injection to 3- and 7-wk-old mice for 2 wk or to 3-wk-old mice for 10 wk. For BrdU labeling experiments, the mice were i.p. injected with 50 mg/kg BrdU (Sigma-Aldrich) before 24 h to euthanize. All animal procedures were approved by the Institutional Animal Care and Use Committee of Yonsei University (Korea) and conducted based on the guidelines of the Korean Food and Drug Administration.

Structures are written as SMILES.

On to `CON=C1C(=C2C(=O)Nc3cc(Cl)c(Cl)cc32)Nc2ccccc21` [KY19382, 5,6-dichloroindirubin-3′-methoxime], for which the “TOPFlash Wnt reporter activity” value in data set [1] is given as “strong enhancement”. For the same compound, in data set [2], the “body weight during treatment” value was “no difference in weight”; the “histology of articular cartilage and liver tissues” value is on record as “no histological abnormalities were detected”.
